Measured values published in ChEMBL document CHEMBL1201861, “Genomics of Drug Sensitity in Cancer screening data, Wellcome Trust Sanger Institute”.

Key:
Experiment in all cases: cells
TGBC24TKB = format: functional, cell-based, Homo sapiens; settings: Homo sapiens, TGBC24TKB;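 note: growth inhibition of human TGBC24TKB cells, read out with a cell viability assay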
Description: SANGER: Inhibition of human TGBC24TKB cell growth in a cell viability assay.

KNS-42 = format: functional, cell-based, Homo sapiens; settings: Homo sapiens, KNS-42;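 note: growth inhibition of KNS-42 cells, read out with a cell viability assay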
Description: SANGER: Inhibition of human KNS-42 cell growth in a cell viability assay.

OVCAR-4 = format: functional, cell-based, Homo sapiens; settings: Homo sapiens, OVCAR-4;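 note: growth inhibition of human OVCAR-4 cells, measured with a cell viability assay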
Description: SANGER: Inhibition of human OVCAR-4 cell growth in a cell viability assay.

LB2518-MEL = format: functional, cell-based, Homo sapiens; settings: Homo sapiens, LB2518-MEL;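 note: growth inhibition of human LB2518-MEL cells, measured with a cell viability assay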
Description: SANGER: Inhibition of human LB2518-MEL cell growth in a cell viability assay.

LB831-BLC = format: functional, cell-based, Homo sapiens; settings: Homo sapiens, LB831-BLC;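 note: growth inhibition of LB831-BLC cells, read out with a cell viability assay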
Description: SANGER: Inhibition of human LB831-BLC cell growth in a cell viability assay.

GI-1 = format: functional, cell-based, Homo sapiens; settings: Homo sapiens, GI-1;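 note: growth inhibition of human GI-1 cells, measured with a cell viability readout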
Description: SANGER: Inhibition of human GI-1 cell growth in a cell viability assay.

KALS-1 = format: functional, cell-based, Homo sapiens; settings: Homo sapiens, KALS-1;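 note: growth inhibition of KALS-1 cells, determined with a cell viability assay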
Description: SANGER: Inhibition of human KALS-1 cell growth in a cell viability assay.

Ramos-2G6-4C10 = format: functional, cell-based, Homo sapiens; settings: Homo sapiens, Ramos-2G6-4C10;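 note: growth inhibition of the cell line, measured by a cell viability read-out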
Description: SANGER: Inhibition of human Ramos-2G6-4C10 cell growth in a cell viability assay.

COR-L88 = format: functional, cell-based, Homo sapiens; settings: Homo sapiens, COR-L88;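 note: growth inhibition of COR-L88 cells, read out with a cell viability assay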
Description: SANGER: Inhibition of human COR-L88 cell growth in a cell viability assay.

AM-38 = format: functional, cell-based, Homo sapiens; settings: Homo sapiens, AM-38;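 note: growth inhibition of AM-38 cells of human origin, read out by a cell viability assay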
Description: SANGER: Inhibition of human AM-38 cell growth in a cell viability assay.

K5 = format: functional, cell-based, Homo sapiens; settings: Homo sapiens, K5
Description: SANGER: Inhibition of human K5 cell growth in a cell viability assay.

OMC-1 = format: functional, cell-based, Homo sapiens; settings: Homo sapiens, OMC-1;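 note: growth inhibition of the OMC-1 cell line, measured by a cell viability assay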
Description: SANGER: Inhibition of human OMC-1 cell growth in a cell viability assay.

BB30-HNC = format: functional, cell-based, Homo sapiens; settings: Homo sapiens, BB30-HNC;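 note: growth inhibition of the cultured cell line, read out by a cell viability assay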
Description: SANGER: Inhibition of human BB30-HNC cell growth in a cell viability assay.

SNU-5 = format: functional, cell-based, Homo sapiens; settings: Homo sapiens, SNU-5;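 note: cell viability readout used to measure growth inhibition in human NCI-SNU-5 cells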
Description: SANGER: Inhibition of human NCI-SNU-5 cell growth in a cell viability assay.

LU-139 = format: functional, cell-based, Homo sapiens; settings: Homo sapiens, LU-139
Description: SANGER: Inhibition of human LU-139 cell growth in a cell viability assay.

SJSA-1 = format: functional, cell-based, Homo sapiens; settings: Homo sapiens, SJSA-1;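 note: growth inhibition of human SJSA-1 cells, read out through a cell viability measurement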
Description: SANGER: Inhibition of human SJSA-1 cell growth in a cell viability assay.

RS4-11 = format: functional, cell-based, Homo sapiens; settings: Homo sapiens, RS4-11;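 note: growth inhibition of RS4-11 cells, read out by a cell viability assay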
Description: SANGER: Inhibition of human RS4-11 cell growth in a cell viability assay.

COLO-824 = format: functional, cell-based, Homo sapiens; settings: Homo sapiens, COLO-824
Description: SANGER: Inhibition of human COLO-824 cell growth in a cell viability assay.

NCI-H1650 = format: functional, cell-based, Homo sapiens; settings: Homo sapiens, NCI-H1650;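 note: growth inhibition of human NCI-H1650 cells measured by a cell viability assay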
Description: SANGER: Inhibition of human NCI-H1650 cell growth in a cell viability assay.

MSTO-211H = format: functional, cell-based, Homo sapiens; settings: Homo sapiens, MSTO-211H
Description: SANGER: Inhibition of human MSTO-211H cell growth in a cell viability assay.

DMS-114 = format: functional, cell-based, Homo sapiens; settings: Homo sapiens, DMS-114
MOLT-16 = format: functional, cell-based, Homo sapiens; settings: Homo sapiens, MOLT-16;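 note: growth inhibition of human MOLT-16 cells, read out with a cell viability assay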
Description: SANGER: Inhibition of human MOLT-16 cell growth in a cell viability assay.

MHH-NB-11 = format: functional, cell-based, Homo sapiens; settings: Homo sapiens, MHH-NB-11;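 note: growth inhibition of human MHH-NB-11 cells, read out by a cell viability assay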
Description: SANGER: Inhibition of human MHH-NB-11 cell growth in a cell viability assay.

SCH = format: functional, cell-based, Homo sapiens; settings: Homo sapiens, SCH;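 note: growth inhibition of human SCH cells, read out in a cell viability assay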
Description: SANGER: Inhibition of human SCH cell growth in a cell viability assay.

NCI-H1648 = format: functional, cell-based, Homo sapiens; settings: Homo sapiens, NCI-H1648;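 note: cell viability assay measuring inhibition of NCI-H1648 cell growth, from the Sanger screening data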
Description: SANGER: Inhibition of human NCI-H1648 cell growth in a cell viability assay.

KE-37 = format: functional, cell-based, Homo sapiens; settings: Homo sapiens, KE-37;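 note: growth inhibition of KE-37 cells, read out with a cell viability assay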
Description: SANGER: Inhibition of human KE-37 cell growth in a cell viability assay.

NCI-H82 = format: functional, cell-based, Homo sapiens; settings: Homo sapiens, NCI-H82;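 note: growth inhibition of NCI-H82 cells, measured with a cell viability readout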
Description: SANGER: Inhibition of human NCI-H82 cell growth in a cell viability assay.

HC-1 = format: functional, cell-based, Homo sapiens; settings: Homo sapiens, HC-1;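 note: growth inhibition of HC-1 cells measured by a cell viability assay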
Description: SANGER: Inhibition of human HC-1 cell growth in a cell viability assay.

LB771-HNC = format: functional, cell-based, Homo sapiens; settings: Homo sapiens, LB771-HNC;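 note: growth inhibition of LB771-HNC human cells, read out with a cell viability assay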
Description: SANGER: Inhibition of human LB771-HNC cell growth in a cell viability assay.

LS-1034 = format: functional, cell-based, Homo sapiens; settings: Homo sapiens, LS-1034
Description: SANGER: Inhibition of human LS-1034 cell growth in a cell viability assay.

LOX IMVI = format: functional, cell-based, Homo sapiens; settings: Homo sapiens, LOX IMVI
Description: SANGER: Inhibition of human LOXIMVI cell growth in a cell viability assay.

NB10 = format: functional, cell-based, Homo sapiens; settings: Homo sapiens, NB10;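 note: growth inhibition of NB10 cells, read out by a cell viability assay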
Description: SANGER: Inhibition of human NB10 cell growth in a cell viability assay.

NEC8 = format: functional, cell-based, Homo sapiens; settings: Homo sapiens, NEC8;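 note: growth inhibition of human NEC8 cells, read out by a cell viability assay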
Description: SANGER: Inhibition of human NEC8 cell growth in a cell viability assay.

HuTu80 = format: functional, cell-based, Homo sapiens, HUTU-80; settings: Homo sapiens, HuTu80;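 note: growth inhibition of HuTu80 human cells, determined with a cell viability readout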
Description: SANGER: Inhibition of human HUTU-80 cell growth in a cell viability assay.

Lu-65 = format: functional, cell-based, Homo sapiens; settings: Homo sapiens, Lu-65;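 note: growth inhibition of Lu-65 cancer cells, read out by a cell viability assay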
Description: SANGER: Inhibition of human LU-65 cell growth in a cell viability assay.

DJM-1 = format: functional, cell-based, Homo sapiens; settings: Homo sapiens, DJM-1;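 note: growth inhibition of human DJM-1 cells, read out by a cell viability assay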
Description: SANGER: Inhibition of human DJM-1 cell growth in a cell viability assay.

TGW = format: functional, cell-based, Homo sapiens; settings: Homo sapiens, TGW;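 note: growth inhibition of human TGW cells, read out with a cell viability assay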
Description: SANGER: Inhibition of human TGW cell growth in a cell viability assay.

ATN-1 = format: functional, cell-based, Homo sapiens; settings: Homo sapiens, ATN-1;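 note: growth inhibition of human ATN-1 cells, read out with a cell viability assay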
Description: SANGER: Inhibition of human ATN-1 cell growth in a cell viability assay.

EW-18 = format: functional, cell-based, Homo sapiens; settings: Homo sapiens, EW-18;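 note: growth inhibition of EW-18 cells, read out by a cell viability assay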
Description: SANGER: Inhibition of human EW-18 cell growth in a cell viability assay.

D-502MG = format: functional, cell-based, Homo sapiens; settings: Homo sapiens, D-502MG
Description: SANGER: Inhibition of human D-502MG cell growth in a cell viability assay.

HH = format: functional, cell-based, Homo sapiens; settings: Homo sapiens, HH
Description: SANGER: Inhibition of human HH cell growth in a cell viability assay.

HCC1187 = format: functional, cell-based, Homo sapiens; settings: Homo sapiens, HCC1187;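 note: growth inhibition of HCC1187 cells, read out with a cell viability assay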
Description: SANGER: Inhibition of human HCC1187 cell growth in a cell viability assay.

KM-H2 = format: functional, cell-based, Homo sapiens; settings: Homo sapiens, KM-H2;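 note: growth inhibition of KM-H2 cells, read out by a cell viability assay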
Description: SANGER: Inhibition of human KM-H2 cell growth in a cell viability assay.

TE-11 = format: functional, cell-based, Homo sapiens; settings: Homo sapiens, TE-11;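 note: growth inhibition of human TE-11 cells, read out by a cell viability assay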
Description: SANGER: Inhibition of human TE-11 cell growth in a cell viability assay.

NCI-H226 = format: functional, cell-based, Homo sapiens; settings: Homo sapiens, NCI-H226;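 note: cell viability read-out used to gauge growth inhibition of the cells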
Description: SANGER: Inhibition of human NCI-H226 cell growth in a cell viability assay.

SNB-75 = format: functional, cell-based, Homo sapiens; settings: Homo sapiens, SNB-75;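 note: cell viability assay measuring growth inhibition of human SNB-75 cells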
Description: SANGER: Inhibition of human SNB75 cell growth in a cell viability assay.

ES5 = format: functional, cell-based, Homo sapiens; settings: Homo sapiens, ES5;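 note: growth inhibition of human ES5 cells, read out by a cell viability assay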
Description: SANGER: Inhibition of human ES5 cell growth in a cell viability assay.

ALL-PO = format: functional, cell-based, Homo sapiens; settings: Homo sapiens, ALL-PO;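 note: growth inhibition of ALL-PO cells, read out by a cell viability assay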
Description: SANGER: Inhibition of human ALL-PO cell growth in a cell viability assay.

KARPAS-299 = format: functional, cell-based, Homo sapiens; settings: Homo sapiens, KARPAS-299
Description: SANGER: Inhibition of human KARPAS-299 cell growth in a cell viability assay.

For `COc1cc(-c2nn([C@H]3CC[C@H](N4CCN(C(C)=O)CC4)CC3)c3ncnc(N)c23)ccc1NC(=O)c1cc2ccccc2n1C`, the IC50 (TGBC24TKB) was 808 nM, the IC50 (KNS-42) was greater than 5120 nM and the IC50 (OVCAR-4) was 1040 nM. It also gave an IC50 (LB2518-MEL) greater than 5120 nM, an IC50 (LB831-BLC) of 593 nM and an IC50 (GI-1) greater than 5120 nM. The IC50 (KALS-1) was 2530 nM, the IC50 (Ramos-2G6-4C10) was greater than 5120 nM and the IC50 (COR-L88) was greater than 5120 nM. The IC50 (AM-38) was greater than 5120 nM, the IC50 (K5) was greater than 5120 nM and the IC50 (OMC-1) was greater than 5120 nM. The IC50 (BB30-HNC) was 874 nM, the IC50 (SNU-5) was greater than 5120 nM and the IC50 (LU-139) was greater than 5120 nM. It also gave an IC50 (SJSA-1) greater than 5120 nM, an IC50 (RS4-11) greater than 5120 nM and an IC50 (COLO-824) greater than 5120 nM. The IC50 (NCI-H1650) was greater than 5120 nM, the IC50 (MSTO-211H) was greater than 5120 nM and the IC50 (DMS-114) was greater than 5120 nM. The IC50 (MOLT-16) was greater than 5120 nM, the IC50 (MHH-NB-11) was greater than 5120 nM and the IC50 (SCH) was greater than 5120 nM. The IC50 (NCI-H1648) was 387 nM, the IC50 (KE-37) was greater than 5120 nM and the IC50 (NCI-H82) was greater than 5120 nM. It also gave an IC50 (HC-1) of 3190 nM, an IC50 (LB771-HNC) greater than 5120 nM and an IC50 (LS-1034) greater than 5120 nM. The IC50 (LOX IMVI) was greater than 5120 nM, the IC50 (NB10) was greater than 5120 nM and the IC50 (NEC8) was greater than 5120 nM. For the same molecule, the IC50 (HuTu80) was 1500 nM, the IC50 (Lu-65) was greater than 5120 nM and the IC50 (DJM-1) was greater than 5120 nM. It also gave an IC50 (TGW) greater than 5120 nM, an IC50 (ATN-1) greater than 5120 nM and an IC50 (EW-18) greater than 5120 nM. The IC50 (D-502MG) was greater than 5120 nM, the IC50 (HH) was greater than 5120 nM and the IC50 (HCC1187) was greater than 5120 nM. For the same molecule, the IC50 (KM-H2) was greater than 5120 nM, the IC50 (TE-11) was 1580 nM and the IC50 (NCI-H226) was greater than 5120 nM. It also gave an IC50 (SNB-75) of 340 nM, an IC50 (ES5) greater than 5120 nM and an IC50 (ALL-PO) greater than 5120 nM. It also gave an IC50 (KARPAS-299) greater than 5120 nM.

`OCCCNc1cc(-c2ccnc(Nc3cccc(Cl)c3)n2)ccn1` gave an IC50 (TGBC24TKB) greater than 256 nM, an IC50 (KNS-42) of 130 nM and an IC50 (OVCAR-4) greater than 256 nM. For the same molecule, the IC50 (LB2518-MEL) was greater than 256 nM, the IC50 (LB831-BLC) was 32.5 nM and the IC50 (GI-1) was 78.1 nM. For the same molecule, the IC50 (KALS-1) was 35.3 nM, the IC50 (Ramos-2G6-4C10) was 59.3 nM and the IC50 (COR-L88) was greater than 256 nM. For the same molecule, the IC50 (AM-38) was greater than 256 nM, the IC50 (K5) was 18.8 nM and the IC50 (OMC-1) was 120 nM. It also gave an IC50 (BB30-HNC) of 52.5 nM, an IC50 (SNU-5) greater than 256 nM and an IC50 (LU-139) of 131 nM. The IC50 (SJSA-1) was 60.7 nM, the IC50 (RS4-11) was 69.6 nM and the IC50 (COLO-824) was greater than 256 nM. The IC50 (NCI-H1650) was greater than 256 nM, the IC50 (MSTO-211H) was greater than 256 nM and the IC50 (DMS-114) was greater than 256 nM. It also gave an IC50 (MOLT-16) greater than 256 nM, an IC50 (MHH-NB-11) of 217 nM and an IC50 (SCH) greater than 256 nM. The IC50 (NCI-H1648) was 189 nM, the IC50 (KE-37) was 81.8 nM and the IC50 (NCI-H82) was greater than 256 nM. For the same molecule, the IC50 (HC-1) was 52.2 nM, the IC50 (LB771-HNC) was 161 nM and the IC50 (LS-1034) was 255 nM. For the same molecule, the IC50 (LOX IMVI) was 202 nM, the IC50 (NB10) was greater than 256 nM and the IC50 (NEC8) was greater than 256 nM. For the same molecule, the IC50 (HuTu80) was 20.2 nM, the IC50 (Lu-65) was greater than 256 nM and the IC50 (DJM-1) was greater than 256 nM. The IC50 (TGW) was 76.9 nM, the IC50 (ATN-1) was 54.2 nM and the IC50 (EW-18) was greater than 256 nM. It also gave an IC50 (D-502MG) greater than 256 nM, an IC50 (HH) of 70.6 nM and an IC50 (HCC1187) greater than 256 nM. The IC50 (KM-H2) was greater than 256 nM, the IC50 (TE-11) was 34.2 nM and the IC50 (NCI-H226) was 213 nM. For the same molecule, the IC50 (SNB-75) was 27.8 nM, the IC50 (ES5) was greater than 256 nM and the IC50 (ALL-PO) was 80 nM. It also gave an IC50 (KARPAS-299) of 29.2 nM.
